Columns and labels:
[1] = molecular target: T1, Solute carrier family 22 member 1 (Rattus norvegicus, UniProt Q63089); test: TP_TRANSPORTER: uptake in OCT1-expressing HeLa cells; assay type: functional, cell-based; details: human
T1 sequence (Q63089 whole entry): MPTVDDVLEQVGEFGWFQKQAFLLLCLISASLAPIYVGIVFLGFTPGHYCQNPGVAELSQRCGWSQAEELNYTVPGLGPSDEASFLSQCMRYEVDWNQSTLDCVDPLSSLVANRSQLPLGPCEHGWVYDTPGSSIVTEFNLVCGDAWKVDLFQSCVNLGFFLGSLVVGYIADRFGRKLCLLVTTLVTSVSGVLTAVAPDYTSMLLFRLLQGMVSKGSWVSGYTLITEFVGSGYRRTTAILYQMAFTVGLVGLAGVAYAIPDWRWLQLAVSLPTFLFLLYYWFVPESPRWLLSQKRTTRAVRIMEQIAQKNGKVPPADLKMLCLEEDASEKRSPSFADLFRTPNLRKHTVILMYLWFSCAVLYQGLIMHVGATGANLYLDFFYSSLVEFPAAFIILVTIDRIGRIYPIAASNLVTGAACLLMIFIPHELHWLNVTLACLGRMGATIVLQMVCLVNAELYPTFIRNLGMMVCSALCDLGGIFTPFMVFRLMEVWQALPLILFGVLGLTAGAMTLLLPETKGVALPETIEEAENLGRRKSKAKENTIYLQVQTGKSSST

[2] = molecular target: Solute carrier family 22 member 1, Homo sapiens (UniProt O15245); test: TP_TRANSPORTER: inhibition of TEA uptake (TEA: 10 uM) in OCT1-expressing HeLa cells
Solute carrier family 22 member 1, Homo sapiens, sequence (O15245 whole entry, looked up): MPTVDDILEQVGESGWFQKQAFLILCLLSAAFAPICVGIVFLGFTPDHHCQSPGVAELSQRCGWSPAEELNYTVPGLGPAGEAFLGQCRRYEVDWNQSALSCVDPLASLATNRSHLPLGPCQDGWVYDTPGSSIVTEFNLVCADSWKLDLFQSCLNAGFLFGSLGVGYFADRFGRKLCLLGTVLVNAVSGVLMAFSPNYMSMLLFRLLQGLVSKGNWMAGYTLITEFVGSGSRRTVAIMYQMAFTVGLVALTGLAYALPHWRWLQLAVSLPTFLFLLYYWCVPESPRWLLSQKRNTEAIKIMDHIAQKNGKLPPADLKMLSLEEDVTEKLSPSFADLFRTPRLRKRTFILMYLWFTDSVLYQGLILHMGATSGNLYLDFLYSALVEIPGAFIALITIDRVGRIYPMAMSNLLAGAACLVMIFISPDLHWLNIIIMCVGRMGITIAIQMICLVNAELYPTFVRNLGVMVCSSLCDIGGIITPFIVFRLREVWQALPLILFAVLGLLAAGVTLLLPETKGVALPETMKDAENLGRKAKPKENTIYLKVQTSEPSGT

Activity [1] | IC50 [2] [µM] | SMILES
is not a substrate [-] | 8.26 | CC(C)(C)NC(=O)[C@@H]1C[C@@H]2CCCC[C@@H]2CN1C[C@@H](O)[C@H](Cc1ccccc1)NC(=O)[C@H](CC(N)=O)NC(=O)c1ccc2ccccc2n1 [SAQUINAVIR]
– | 61.7 | CC(C)(C)NC(=O)[C@@H]1CN(Cc2cccnc2)CCN1C[C@@H](O)C[C@@H](Cc1ccccc1)C(=O)N[C@H]1c2ccccc2C[C@H]1O [INDINAVIR]
– | 21.8 | Cc1c(O)cccc1C(=O)N[C@@H](CSc1ccccc1)[C@H](O)CN1C[C@H]2CCCC[C@H]2C[C@H]1C(=O)NC(C)(C)C [NELFINAVIR]
